In US20190099502A1, “TARGETING THE NEURONAL CALCIUM SENSOR 1 FOR TREATING WOLFRAM SYNDROME” (INSERM (INSTITUT NATIONAL DE LA SANTÉ ET DE LA RECHERCHE …, priority 2016, published 2019):
Where a SMILES comes first, the peptide text is derived from it. The star is where a group is joined. Cbz = O=C(OCc1ccccc1)*

System: NCS1 expression
Assay: Time course immunoblotting of NCS1 in fibroblasts treated with MG-132
Assay type: cell-based, human
Conditions: 10 μM MG-132, 16 h
Method: Immunoprecipitates were analysed by western blotting with antibodies against Flag and myc. Input represents cell lysate. n=3 independent experiments. (B) Transcript levels of WFS1 were quantified by RT-qPCR in control (C1, C2) and patient fibroblasts (P1, P2). The mRNA levels were normalized with reference gene L27. Error bars: SEM n=6 independent experiments. (C) Immunoblot of lysates from controls (C1, C2) and patient fibroblasts (P1, P2) with NCS1 antibody. GAPDH was used as a loading control. The immunoblot bands were quantified by densitometry, and the NCS1/GAPDH ratios were calculated (n=5 independent experiments). (D) Western analysis and quantification of control fibroblasts transfected with scramble siRNA (siScr) or WFS1 siRNA (siWFS1). WFS1 and NCS1 protein expression were analysed 72 h post-siRNA transfection. Data are represented as mean ±SEM from n=7 independent experiments *p<0.05, using Mann Whitney test. […]
GAPDH was used as a loading control. Quantification of NCS1 expression level after 16 h of MG-132 treatment normalized to GAPDH is shown. […]
To investigate NCS1 functions in WS, we took advantage of WFS1-null patient fibroblasts. […] We first examined the expression of WFS1 using quantitative PCR and western blot. […] Then, we analysed NCS1 mRNA and protein expression in patient cells. […]

## CC(C)C[C@@H](C=O)NC(=O)[C@H](CC(C)C)NC(=O)[C@H](CC(C)C)NC(=O)OCc1ccccc1 [MG-132] (Cbz-Leu-Leu-Leu-aldehyde)
Control cells
  effect on NCS1 expression: ineffective
Patient fibroblasts, normalized to GAPDH
  increase in NCS1 expression: two-fold
